Article PMC3349818 (Journal of Medicinal Chemistry, 2012)

What was measured:
[1] = Pharmacokinetic study in female CD1 mice, single oral dose; details: CD1, mouse, in vivo, 200 mg/kg
[2] = In vitro liver microsome assay, mouse; format: in vitro ADME; details: predicted from mouse liver microsome stability

| AUC [1] | predicted in vivo mouse CL′inf [2] | Compound |
| --- | --- | --- |
| > 70 µM·h |  | CCOC(=O)c1c(-c2cccc(Br)c2)[nH]c2cc(OC)c(F)cc2c1=O [20h] |
| > 125 µM·h | 9.4 mL/min/kg | CCOC(=O)c1c(-c2cccc(Cl)c2)[nH]c2cc(OC)c(F)cc2c1=O [20g, Ethyl 2-(3-chlorophenyl)-6-fluoro-7-methoxy-4-oxo-1,4-dihydroquinoline-3-carboxylate] |
